From patent US6395787B1, “Ocular hypotensive lipids” (Allergan Sales, Inc., priority 2000, dated 2002)

How the values were obtained:
[1] = test system: isolated guinea pig vas deferens (EP3 receptor subtype); assay: Inhibition of field stimulated contraction of isolated guinea pig vas deferens
Experimental: Smooth muscle tension of isolated tissues was measured isometrically with force displacement transducers (Grass FT-03) and recorded on Grass Polygraphs (Models 7G and 79E). The organ baths contained Krebs solution maintained at 37° C. and gassed with 95% 02/5% CO2 to give a pH of 7.4. The Krebs solution had the following composition (mM): NaCl, 118.0; KCl, 4.7; KH2PO4, 1.2; CaCl2, 1.9; MgSO4, 1.18; NaHCO3, 25.0; glucose, 11.7; indomethacin, 0.001.
Activity at the prostaglandin-sensitive EP3 receptor subtype was also determined by the ability of prostanoids to inhibit the smooth muscle twitch response stimulated by an electrical current in the isolated guinea pig vas deferens. 1.5 cm portions of the guinea pig vas deferens were suspended under 1 g initial tension and allowed to equilibrate for at least 30 minutes. Tissues were then subjected to stimulation every 30 seconds by 20 volt electrical pulses. After stabilization of the twitch response, a standard dose response curve to PGE2 was performed in a cumulative fashion. Test compounds were then evaluated by performing a cumulative dose response curve. Tissues were washed-out and allowed to equilibrate for 1 hr between compounds. PGE2 was once again evaluated at the conclusion of the experiment as a standard reference. Activity was calculated as the percent inhibition of the height of the muscle twitch response.

[2] = biological target: recombinant feline FP receptor (Felis catus, UniProt A0ABI7XJ69); assay: Ca2+ signal in HEK-293 cells stably transfected with recombinant feline FP receptor; format: cell-based, cat; conditions: for Δ[Ca^2+]i mean χ ± SEM: n = 3
Chain of recombinant feline FP receptor (A0ABI7XJ69 entry or part of it): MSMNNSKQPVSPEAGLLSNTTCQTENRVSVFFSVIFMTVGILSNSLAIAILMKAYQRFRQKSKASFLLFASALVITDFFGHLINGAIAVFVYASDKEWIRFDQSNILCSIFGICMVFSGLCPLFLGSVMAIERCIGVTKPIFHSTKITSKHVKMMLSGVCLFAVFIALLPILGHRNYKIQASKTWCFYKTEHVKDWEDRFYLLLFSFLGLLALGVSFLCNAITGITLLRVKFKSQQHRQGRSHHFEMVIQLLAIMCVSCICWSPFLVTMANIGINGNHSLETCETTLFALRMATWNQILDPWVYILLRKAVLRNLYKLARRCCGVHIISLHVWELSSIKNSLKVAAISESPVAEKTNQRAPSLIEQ
Experimental: Human CRL 1497 cells were plated in culture flasks and fed Dulbecco's modified Eagle's medium (DMEM) containing 10% fetal calf serum, 2 mM 1-glutamine, and 0.05 mg/ml gentacin (all purchased from Gibco, Grand Island, N.Y.). Cell cultures were maintained in a humidified atmosphere of 95% air, 5% CO2 and grown to confluency. Cells were removed from the culture flasks by approximately 1 min treatment with trypsin 0.05%/0.53 mM EDTA in Hanks Balanced Salt Solution (HBSS, Gibco, Grand Island, N.Y.) at 37° C. Proteolytic activity was arrested by adding 5 ml of 10% fetal bovine serum in DMEM. The cells were consecutively washed in Hank's BSS and medium containing 140 mM NaCl, […], 1 mM MgCl2, 1.5 mM CaCl2, 10 mM HEPES: TRIS, 5 mM glucose, 5 mM Na pyruvate, 0.1% bovine serum albumin at pH 7.4: Centrifugation for the washes was performed for 15 minutes at 200 g at room temperature. Cells were counted, resuspended in the above medium and incubated with 2×10^−6 M Fura 2/acetoxymethyl ester in a shaking water bath for 30 minutes at 37° C. The cells were subsequently washed in medium as above and resuspended at a concentration of 2×10^6 cells ml^−1. Aliquots of 0.5 ml cell suspension were then added to autocap microtubes to provide 10^6 cells per experimental determination of intracellular free Ca^2+ concentration ([Ca^2+]i).
Fluorescence was measured in a Perkin-Elmer LS-5 fluorescence spectrophotometer at excitation and emission wavelengths of 340 and 492 nm, respectively, with both slits at 10 nm. For each experimental determination 10^6 cells were washed (200×g for 5 min) and suspended in a 2 ml cuvette with buffer containing 120 mM NaCl, 6 mM KCl, 1 mM MgSO4, 1.5 mM CaCl2, 20 mM HEPES, 1 mg ml^−1 glucose and 1 mg ml^−1 Na pyruvate. Stirring was achieved by an overhead-mounted, paddle stirrer with the temperature maintained at 37° C. The cells were lysed with digitonin (10 μl of 100 mg ml^−1 DMSO) to obtain fmax. EGTA (100 mM) and sufficient 10N NaOH to adjust the pH to 8.5 were then successively added to obtain fmin.
HEK-293 cells were grown in DMEM with 10% fetal bovine serum (FBS), 250 μg ml^−1 G418 (Life Technologies) and 200 μg ml^−1 gentamicin or penicillin/streptomycin. […] For transfection, the cells were grown to 50-60% confluency on 10 cm plates. The plasmid pCEP4 incorporating cDNA inserts for the human FP receptor (20 μg) was added to 500 μl of 250 mM CaCl2. HEPES buffered saline×2 (2×HBSS, 280 mM NaCl, 20 mM HEPES acid, 1.5 mM Na2 HPO4, pH 7.05-7.12) was then added dropwise to a […], with continuous vortexing at room temperature. After 30 min, 9 ml DMEM were added to the mixture. The DNA/DMEM/calcium phosphate mixture was then added to the cells, which had been previously rinsed with 10 ml phosphate buffered saline (PBS). The cells were then incubated for 5 h. at 37° C. in humidified 95% air/5% CO2. The calcium phosphate solution was then removed and the cells were treated with 10% glycerol in DMEM for 2 min. The glycerol solution was then replaced by DMEM with 10% fetal bovine serum (FBS). The cells were incubated overnight and the medium was replaced by DMEM/10% FBS containing 250 μg ml^−1 G418 and penicillin/streptomycin. The following day hygromycin B was added to a final concentration of 200 μg ml^−1.
Ten days after transfection, hygromycin B resistant clones were individually selected and transferred to a separate well on a 24 well plate. […]

dog intraocular pressure = assay: Intraocular pressure in conscious Beagle dogs; format: in vivo; conditions: 0.1% dose, topical
Experimental: Intraocular pressure studies in dogs involved pneumatonometry performed in conscious, Beagle dogs of both sexes (10-15 kg). The animals remained conscious throughout the study and were gently restrained by hand. Drugs were administered topically to one eye as a 25 μL volume drop, the other eye received 25 μL vehicle (0.1% polysorbate 80:10 mM TRIS) as a control. 0.1% proparacaine was used for corneal anesthesia during tonometry. Intraocular pressure was determined just before drug administration and at 2, 4 and 6 hr thereafter on each day of the 5 day study. Drug was administered immediately after the first IOP reading.

## CCCCC[C@H](O)/C=C/[C@@H]1[C@@H](C/C=C\CCCC(=O)NCCO)[C@@H](O)C[C@H]1O [PGF2α 1-ethanolamide, (5Z,8α,9α,11α,13E,15S)-9,11,15-trihydroxy-N-(2-hydroxyethyL)prosta-5,13-dien-1-amide]
[1]
  inhibiting field stimulation evoked contraction: modestly effective
[2]; 10^−9 M
  Δ[Ca^2+]i mean χ ± SEM: 22.2 ± 6.4
[2]; 10^−10 M
  Δ[Ca^2+]i mean χ ± SEM: 6.5 ± 5.0
[2]; HEK-293 cells, recombinant feline FP receptor, Ca2+ signal
  difference in potency vs PGF2α: approximately 100 fold
[2]; HEK-293 cells, recombinant feline FP receptor, read-out: E.C.50, Ca2+ signal
  EC50: 1460 nM
Dog intraocular pressure
  duration of intraocular pressure effect: persisted over the entire 24 hr experimental period
  effect on intraocular pressure: marked and highly significant decrease
